Here are results for 12 compounds from paper PMC11061460, “Acyl pyrazole sulfonamides as new antidiabetic agents: synthesis, glucosidase inhibition studies, and molecular docking analysis” (Frontiers in Chemistry, 2024).

Where two headings read alike, the source gives them in different places.

One data set concerns β-glucosidase. As to the kind of experiment: β-glucosidase inhibitory assay in 96-well plates (p-NPG, absorbance 405 nm). Format: biochemical. The settings on record: concentration of 1 mM; end concentration of 100 µM in each well. How it is done:
An already established method was employed to perform α- and β-glucosidase inhibitory assays in 96-well plates ([Kazmi et al., 2017]). In this assay, phosphate buffer (0.07 M pH 6.8) was used to prepare 2.5 U/mL of α-glucosidase, 2.0 U/mL of β-glucosidase, and substrate 4-nitrophenyl-β-D-glucopyranoside (p-NPG) (10 mM) solutions. In addition, 1 mM solution of each test compound was prepared in 10% DMSO to achieve an end concentration of 100 µM in each well. Initially, 10 µL of the respective enzyme was incubated with 10 µL of test compounds for 5 min at 37 °C. Subsequently, 10 µL of p-NPG was added in each well followed by an incubation period of 30 min at 37 °C before adding 80 µL of Na2CO3 (200 mM) as a stop solution to each well. The absorbance was measured at 405 nm, and the percentage inhibition for each of the test compounds was determined by the following equation.
Percentage inhibition = 100–[Slope of test compound/Slope of enzyme control] × 100.
Acarbose was used as a standard drug for evaluating the efficacy of test compounds against α- and β-glucosidase. The inhibitory concentration 50 (IC50) for each of the test compound was determined by GraphPad prism version 10.0.

A further data set has as its target α-glucosidase (Saccharomyces cerevisiae, UniProt P53341). As to the kind of experiment: biochemical. The class given is biochemical.
Where [1] appears, read: read-out: α-glucosidase inhibition IC50 ± SEM.

Sequence of α-glucosidase (P53341 whole entry): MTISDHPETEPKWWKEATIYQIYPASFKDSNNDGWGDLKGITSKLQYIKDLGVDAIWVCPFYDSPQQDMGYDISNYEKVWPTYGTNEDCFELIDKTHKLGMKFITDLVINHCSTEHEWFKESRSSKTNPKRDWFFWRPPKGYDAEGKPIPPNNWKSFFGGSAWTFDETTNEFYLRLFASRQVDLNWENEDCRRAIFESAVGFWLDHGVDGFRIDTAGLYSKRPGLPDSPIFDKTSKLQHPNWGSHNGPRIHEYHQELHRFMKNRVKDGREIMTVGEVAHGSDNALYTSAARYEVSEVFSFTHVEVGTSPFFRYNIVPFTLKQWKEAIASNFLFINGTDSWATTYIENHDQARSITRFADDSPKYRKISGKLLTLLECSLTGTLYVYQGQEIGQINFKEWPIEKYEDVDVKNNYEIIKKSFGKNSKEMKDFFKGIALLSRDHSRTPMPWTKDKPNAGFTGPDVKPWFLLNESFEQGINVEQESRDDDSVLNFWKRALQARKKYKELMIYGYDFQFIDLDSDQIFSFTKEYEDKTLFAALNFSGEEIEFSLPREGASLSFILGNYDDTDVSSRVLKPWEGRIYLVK

For `C[C@H]1O[C@H](O[C@H]2[C@H](O)[C@@H](O)[C@@H](O[C@H]3[C@H](O)[C@@H](O)C(O)O[C@@H]3CO)O[C@@H]2CO)[C@H](O)[C@@H](O)[C@@H]1N[C@H]1C=C(CO)[C@@H](O)[C@H](O)[C@H]1O` (stereo partly shown) [Acarbose, reference compound], the “β-glucosidase inhibition %age inhibition” value with β-glucosidase is recorded as 63.7%.

Regarding `Cc1nn(C(=O)c2ccc(Cl)cc2)c(C)c1/N=N/c1ccc(S(N)(=O)=O)cc1` [Compound 5a, (E)-4-((1-(4-Chlorobenzoyl)-3,5-dimethyl-1H-pyrazol-4-yl)diazenyl)benzenesulfonamide], in the data set on β-glucosidase, the “β-glucosidase inhibition %age inhibition” value was 34.3%. The same compound came in with an IC50 against α-glucosidase of 1.13 ± 0.06 µM.

`Cc1nn(C(=O)c2cccc(Cl)c2)c(C)c1/N=N/c1ccc(S(N)(=O)=O)cc1` [Compound 5b, (E)-4-((1-(3-Chlorobenzoyl)-3,5-dimethyl-1H-pyrazol-4-yl)diazenyl)benzenesulfonamide]: the “β-glucosidase inhibition %age inhibition” value in the data set on β-glucosidase was 32.1%. The compound further came in with an IC50 on α-glucosidase of 2.22 ± 0.11 µM. Also, the “reduction in activity on switching chlorine from para- to meta-position” value on α-glucosidase (relative to 5a) came to 50%.

Turning to `COc1ccc(C(=O)n2nc(C)c(/N=N/c3ccc(S(N)(=O)=O)cc3)c2C)cc1` [Compound 5c, (E)-4-((1-(4-Methoxybenzoyl)-3,5-dimethyl-1H-pyrazol-4-yl)diazenyl)benzenesulfonamide], the melting point lay in the range of 202 to 205 °C. Further, in the data set on β-glucosidase, the “β-glucosidase inhibition %age inhibition” value was 12.9%. On α-glucosidase (setting [1]), the IC50 came to 3.29 ± 0.09 µM.

Compound `COc1ccc(C(=O)n2nc(C)c(/N=N/c3ccc(S(N)(=O)=O)cc3)c2C)cc1OC` [Compound 5d, (E)-4-((1-(3,4-Dimethoxybenzoyl)-3,5-dimethyl-1H-pyrazol-4-yl)diazenyl)benzenesulfonamide] gave a melting point of 226 to 228 °C. Also, in the data set with β-glucosidase, the “β-glucosidase inhibition %age inhibition” value is reported as 18.5%. The same compound gave an IC50 on α-glucosidase of 4.53 ± 0.12 µM.

For the compound `Cc1nn(C(=O)c2ccc([N+](=O)[O-])cc2)c(C)c1/N=N/c1ccc(S(N)(=O)=O)cc1` [Compound 5e, (E)-4-((3,5-Dimethyl-1-(4-nitrobenzoyl)-1H-pyrazol-4-yl)diazenyl)benzenesulfonamide], the melting point was 231 to 233 °C. For the same compound, the “β-glucosidase inhibition %age inhibition” value in the data set with β-glucosidase is listed as 11.7%. In addition, on α-glucosidase, the “potency relative to acarbose (times/fold more potent)” value was “eight”. Further, at α-glucosidase (setting [1]), the IC50 was found to be 4.11 ± 0.19 µM.

`Cc1nn(C(=O)c2cccc([N+](=O)[O-])c2)c(C)c1/N=N/c1ccc(S(N)(=O)=O)cc1` [Compound 5f, (E)-4-((3,5-Dimethyl-1-(3-nitrobenzoyl)-1H-pyrazol-4-yl)diazenyl)benzenesulfonamide]: the “β-glucosidase inhibition %age inhibition” value with β-glucosidase worked out at 27.4%. Besides, the IC50 at α-glucosidase (setting [1]) is 2.77 ± 0.24 µM.

Regarding `Cc1ccccc1C(=O)n1nc(C)c(/N=N/c2ccc(S(N)(=O)=O)cc2)c1C` [Compound 5g, (E)-4-((3,5-Dimethyl-1-(2-methylbenzoyl)-1H-pyrazol-4-yl)diazenyl)benzenesulfonamide], in the data set with β-glucosidase, the “β-glucosidase inhibition %age inhibition” value came to 21.0%. On α-glucosidase, this compound displayed an IC50 of 3.47 ± 0.43 µM.

Compound `Cc1ccc(C(=O)n2nc(C)c(/N=N/c3ccc(S(N)(=O)=O)cc3)c2C)cc1` [Compound 5h, (E)-4-((3,5-Dimethyl-1-(4-methylbenzoyl)-1H-pyrazol-4-yl)diazenyl)benzenesulfonamide] yielded a melting point of 218 to 220 °C. In the data set with β-glucosidase, the “β-glucosidase inhibition %age inhibition” value is listed as 14.6%. Further, the IC50 at α-glucosidase (setting [1]) amounted to 9.22 ± 0.45 µM.

With `Cc1nn(C(=O)c2ccc(Br)cc2)c(C)c1/N=N/c1ccc(S(N)(=O)=O)cc1` [Compound 5i, (E)-4-((1-(4-Bromobenzoyl)-3,5-dimethyl-1H-pyrazol-4-yl)diazenyl)benzenesulfonamide], the melting point was 235 to 237 °C. Moreover, the “β-glucosidase inhibition %age inhibition” value in the data set on β-glucosidase was found to be 11.2%. The same compound showed an IC50 on α-glucosidase of 19.1 ± 1.07 µM.

Turning to `COc1cccc(C(=O)n2nc(C)c(/N=N/c3ccc(S(N)(=O)=O)cc3)c2C)c1` [Compound 5j, (E)-4-((1-(3-Methoxybenzoyl)-3,5-dimethyl-1H-pyrazol-4-yl)diazenyl)benzenesulfonamide], the “β-glucosidase inhibition %age inhibition” value with β-glucosidase turned out to be 7.55%. Also, the IC50 at α-glucosidase is 17.9 ± 1.16 µM.

`Cc1n[nH]c(C)c1/N=N/c1ccc(S(N)(=O)=O)cc1` [Compound 5k, (E)-4-((3,5-Dimethyl-1H-pyrazol-4-yl)diazenyl)benzenesulfonamide] yielded a melting point of 188 to 190 °C. Also, the “β-glucosidase inhibition %age inhibition” value in the data set on β-glucosidase is 25.1%. Also, 28.3 ± 1.45 µM corresponded to half-maximal inhibition on α-glucosidase (IC50).
